Measurements reported in US10654834B2 (Venenum Biodesign, LLC, priority 2016, dated 2020).

Target: T1, mouse TGR5 receptor (Mus musculus, UniProt Q80SS6)
T1 construct: host or cells: HEK293-EBNA (293 c18, ATCC CRL10852)
T1 sequence (Q80SS6 1-329): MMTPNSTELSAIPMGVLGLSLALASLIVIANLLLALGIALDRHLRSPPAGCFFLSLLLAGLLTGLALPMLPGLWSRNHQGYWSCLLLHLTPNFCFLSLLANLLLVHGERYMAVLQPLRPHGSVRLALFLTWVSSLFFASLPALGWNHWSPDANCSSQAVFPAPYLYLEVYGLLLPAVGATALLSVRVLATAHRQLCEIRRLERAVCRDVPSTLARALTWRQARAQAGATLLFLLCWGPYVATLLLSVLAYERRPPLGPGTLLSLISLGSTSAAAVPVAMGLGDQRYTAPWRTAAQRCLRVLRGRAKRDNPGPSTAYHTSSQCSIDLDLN
Test: Mouse TGR5 luminescent cAMP production assay (HEK293-EBNA cells, DiscoveRx cAMP XS+ kit)
Format: cell-based
Settings: HEK293-EBNA cells overexpressing mouse TGR5, luminescent cAMP assay; read-out: Mouse TGR5 Lum. cAMP Activity (EC50)
Summary of the method: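 HEK293-EBNA cells stably expressing mouse TGR5, resuspended in serum-free DMEM with 500 μM IBMX, were premixed 20 min with cAMP antibody, then exposed to half-log compound dilutions for 1 h at room temperature. cAMP was read by luminescent enzyme-fragment complementation (cAMP XS+) after overnight incubation; EC50 derived.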

## N#Cc1ccc(CCNC(=O)[C@@H]2CCCN2c2cc(N3CCC(CO)CC3)nc(C(F)(F)F)n2)cc1 [Compound 1, (S)—N-(4-cyanophenethyl)-1-(6-(4-(hydroxymethyl)piperidin-1-yl)-2-(trifluoromethyl)pyrimidin-4-yl)pyrrolidine-2-carboxamide]
  EC50: < 100 nM
